According to patent publication US9050328B2 (Jiangsu Hansoh Pharmaceutical Group Co., Ltd., priority 2010, dated 2015):
Structures can show the parent of a compound that is named as a salt. Where two headings read alike, the source gives them in different places.

Key:
[1] = In vitro dissolution rate test in phosphate buffer (1000 ml, 50 turns per minute, HPLC); type: physicochemical
[2] = as above; type: physicochemical; parameters: unit not given here
Method: PVP was used as the carrier material. The solid dispersion is prepared by solvent method (drug:carrier=1:10), and the method to evaluate solubility in vitro is given as follows:
Using this method, 5 ml of the solution was taken at 5 min, 10 min, 15 min, 20 min, 30 min, 45 min, and 60 min (5 ml dissolution medium was supplemented after the 5 ml solution was taken out) and filtered. The filtrate was taken as the test solution and checked for purity using HPLC.
(2) A solid dispersion which contains the drug substance 5 mg, according to the method of dissolution rate test and 1000 ml at pH 6.8 phosphate buffer was used as dissolution medium, with a rotating speed of 50 turns per minute. Using this method, 5 ml of the solution was taken at 5 min, 10 min, 15 min, 20 min, 30 min, 45 min, and 60 min (5 ml dissolution medium was supplemented after the 5 ml solution was taken out) and filtered. The filtrate was taken as the test solution and checked for purity using HPLC.
The dissolution rate of examples 1-11 were evaluated by the evaluation system mentioned above.
The dissolution rate was evaluated in pH 4.5 phosphate buffer:
The dissolution rate was evaluated in pH6.8 phosphate buffer: […]

[3] = drugs administrated alone; cited from earlier work
[4] = cited from earlier work

SMILES | dissolution rate after micronization only ([1]; pH4.5 and pH6.8, compared to prasugrel hydrochloride prepared by only micronization) | solubility after micronization only ([1]; pH 6.8, compared to prasugrel hydrochloride) | dissolution rate ([2]; pH 4.5 phosphate buffer, 0 min) | dissolution rate ([2]; pH 4.5 phosphate buffer, 5 min) | dissolution rate ([2]; pH 4.5 phosphate buffer, 10 min) | dissolution rate ([2]; pH 4.5 phosphate buffer, 15 min) | dissolution rate ([2]; pH 4.5 phosphate buffer, 20 min) | dissolution rate ([2]; pH 4.5 phosphate buffer, 30 min) | dissolution rate ([2]; pH 6.8 phosphate buffer, 0 min) | dissolution rate ([2]; pH 6.8 phosphate buffer, 5 min) | dissolution rate ([2]; pH 6.8 phosphate buffer, 15 min) | dissolution rate ([2]; pH 6.8 phosphate buffer, 30 min) | dissolution rate ([2]; pH 6.8 phosphate buffer, 45 min) | dissolution rate ([2]; pH 6.8 phosphate buffer, 60 min) | bioavailability, hydrochloride vs free base form [3] | solubility ([4]; pH 1-4) | solubility ([4]; pH 5) | solubility ([4]; pH 6-7)
CC(=O)Oc1cc2c(s1)CCN(C(C(=O)C1CC1)c1ccccc1F)C2 (stereo not drawn) [prasugrel, 5-(2-cyclopropyl-1-(2-fluorophenyl)-2-oxoethyl)-4,5,6,7-tetrahydrothieno[3,2-c]pyridin-2-yl acetate] | improved, but there is still a gap | poorer than that of prasugrel hydrochloride |  |  |  |  |  |  |  |  |  |  |  |  |  |  |  | 
CC(=O)Oc1cc2c(s1)CCN(C(C(=O)C1CC1)c1ccccc1F)C2 (stereo not drawn) [Prasugrel hydrochloride, prasugrel hydrochloride] |  |  | 0 | 16.71 | 26.66 | 32.45 | 36.78 | 43.42 | 0 | 13.69 | 21.03 | 23.99 | 25.13 | 25.62 | about equal | slightly soluble | very slightly soluble | insoluble
